Measurements reported in ChEMBL document CHEMBL1201862, “PubChem BioAssay data set” (2004).
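Each compound was tested at five concentrations against cells in 96-well plates for 48 hours. Abbreviation: GI50, concentration required for 50% inhibition of growth.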 Activity calls are given as the source filed them. Cut-off read from the data, not from the text of the source: active = GI50 up to about 1.1 µM and inactive = higher.

Key:
Assay in all cases: NCI anticancer screen, dose series, 48 h
A498 = tested on: A498
NCI-H522 = tested on: NCI-H522
SN12C = tested on: SN12C
A549 = tested on: A549
ACHN = tested on: ACHN
SK-MEL-28 = tested on: SK-MEL-28
SW-620 = tested on: SW-620
SK-OV-3 = tested on: SK-OV-3
U-251 = tested on: U-251
HCT-15 = tested on: HCT-15
UACC-257 = tested on: UACC-257
CCRF-CEM = tested on: CCRF-CEM
HT-29 = tested on: HT-29
Malme-3M = tested on: Malme-3M
M14 = tested on: M14
KM-20L2 = tested on: KM-20L2
OVCAR-5 = tested on: OVCAR-5
KM12 = tested on: KM12
SNB-78 = tested on: SNB-78
IGROV-1 = tested on: IGROV-1
UO-31 = tested on: UO-31
NCI-H23 = tested on: NCI-H23
UACC-62 = tested on: UACC-62
HOP-18 = tested on: HOP-18
DMS-114 = tested on: DMS-114
SK-MEL-5 = tested on: SK-MEL-5
K562 = tested on: K562
SF-539 = tested on: SF-539
M19-MEL = tested on: M19-MEL
DMS-273 = tested on: DMS-273
SNB-19 = tested on: SNB-19
EKVX = tested on: EKVX
LOX IMVI = tested on: LOX IMVI
HCC 2998 = tested on: HCC 2998
HL-60 = tested on: HL-60
786-0 = tested on: 786-0
SF-268 = tested on: SF-268
LXFL 529 = tested on: LXFL 529
MOLT-4 = tested on: MOLT-4
SR = tested on: SR
SK-MEL-2 = tested on: SK-MEL-2
COLO 205 = tested on: COLO 205
HOP-62 = tested on: HOP-62
RXF 631 = tested on: RXF 631
NCI-H460 = tested on: NCI-H460
OVCAR-3 = tested on: OVCAR-3
HCT-116 = tested on: HCT-116
RXF 393 = tested on: RXF 393
OVCAR-8 = tested on: OVCAR-8
OVCAR-4 = tested on: OVCAR-4
SF-295 = tested on: SF-295
CAKI-1 = tested on: CAKI-1
RPMI-8226 = tested on: RPMI-8226
NCI-H226 = tested on: NCI-H226
SNB-75 = tested on: SNB-75
TK-10 = tested on: TK-10
HOP-92 = tested on: HOP-92
DLD-1 = tested on: DLD-1
XF498 = tested on: XF498

Compound: CCOC(=O)c1c(/C=N\Nc2ccccc2)nc2ccccc2c1-c1ccccc1
- GI50 (A498): 60.4 µM (inactive)
- GI50 (NCI-H522): 24.9 µM (inactive)
- GI50 (SN12C): 38.1 µM (inactive)
- GI50 (A549): 50.9 µM (inactive)
- GI50 (ACHN): 32.7 µM (inactive)
- GI50 (SK-MEL-28): 70.8 µM (inactive)
- GI50 (SW-620): 38.1 µM (inactive)
- GI50 (SK-OV-3): > 100 µM (inactive)
- GI50 (U-251): 38.2 µM (inactive)
- GI50 (HCT-15): 13.6 µM
- GI50 (UACC-257): 70.3 µM (inactive)
- GI50 (CCRF-CEM): 19.2 µM (inactive)
- GI50 (HT-29): 37.6 µM (inactive)
- GI50 (Malme-3M): 35.1 µM (inactive)
- GI50 (M14): 36.7 µM (inactive)
- GI50 (KM-20L2): 38.5 µM (inactive)
- GI50 (OVCAR-5): > 100 µM (inactive)
- GI50 (KM12): 43.9 µM (inactive)
- GI50 (SNB-78): 51.1 µM (inactive)
- GI50 (IGROV-1): 67.1 µM (inactive)
- GI50 (UO-31): 34.4 µM (inactive)
- GI50 (NCI-H23): 39.7 µM (inactive)
- GI50 (UACC-62): 25 µM (inactive)
- GI50 (HOP-18): 31 µM (inactive)
- GI50 (DMS-114): 41.6 µM (inactive)
- GI50 (SK-MEL-5): 31.2 µM (inactive)
- GI50 (K562): 29.5 µM (inactive)
- GI50 (SF-539): 68.5 µM (inactive)
- GI50 (M19-MEL): 26.8 µM (inactive)
- GI50 (DMS-273): 25 µM (inactive)
- GI50 (SNB-19): 79.1 µM (inactive)
- GI50 (EKVX): 61.9 µM (inactive)
- GI50 (LOX IMVI): 35.4 µM (inactive)
- GI50 (HCC 2998): 21.8 µM (inactive)
- GI50 (HL-60): 15 µM (inactive)
- GI50 (786-0): 40.6 µM (inactive)
- GI50 (SF-268): 56.5 µM (inactive)
- GI50 (LXFL 529): 27.2 µM (inactive)
- GI50 (MOLT-4): 20.7 µM (inactive)
- GI50 (SR): 19.2 µM (inactive)
- GI50 (SK-MEL-2): 40.8 µM (inactive)
- GI50 (COLO 205): 24 µM (inactive)
- GI50 (HOP-62): 39 µM (inactive)
- GI50 (RXF 631): 41.2 µM (inactive)
- GI50 (NCI-H460): 37.8 µM (inactive)
- GI50 (OVCAR-3): 31.7 µM (inactive)
- GI50 (HCT-116): 42 µM (inactive)
- GI50 (RXF 393): 65.8 µM (inactive)
- GI50 (OVCAR-8): 32.1 µM (inactive)
- GI50 (OVCAR-4): 29.9 µM (inactive)
- GI50 (SF-295): 61.5 µM (inactive)
- GI50 (CAKI-1): 68.9 µM (inactive)
- GI50 (RPMI-8226): 20.1 µM (inactive)
- GI50 (NCI-H226): 45.7 µM (inactive)
- GI50 (SNB-75): 46.5 µM (inactive)
- GI50 (TK-10): > 100 µM (inactive)
- GI50 (HOP-92): 45.4 µM (inactive)

Compound: O=C1NC2OC(CO)C(O)C(O1)C2O (stereo not given)
- GI50 (A498): > 100 µM (inactive)
- GI50 (NCI-H522): > 100 µM (inactive)
- GI50 (SN12C): > 100 µM (inactive)
- GI50 (ACHN): > 100 µM (inactive)
- GI50 (SK-MEL-28): > 100 µM (inactive)
- GI50 (SW-620): > 100 µM (inactive)
- GI50 (SK-OV-3): > 100 µM (inactive)
- GI50 (U-251): > 100 µM (inactive)
- GI50 (HCT-15): > 100 µM
- GI50 (UACC-257): > 100 µM (inactive)
- GI50 (CCRF-CEM): > 100 µM (inactive)
- GI50 (HT-29): > 100 µM (inactive)
- GI50 (Malme-3M): > 100 µM (inactive)
- GI50 (M14): > 100 µM (inactive)
- GI50 (KM-20L2): > 100 µM (inactive)
- GI50 (OVCAR-5): > 100 µM (inactive)
- GI50 (KM12): > 100 µM (inactive)
- GI50 (SNB-78): > 100 µM (inactive)
- GI50 (IGROV-1): > 100 µM (inactive)
- GI50 (UO-31): > 100 µM (inactive)
- GI50 (NCI-H23): > 100 µM (inactive)
- GI50 (UACC-62): > 100 µM (inactive)
- GI50 (HOP-18): > 100 µM (inactive)
- GI50 (DMS-114): > 100 µM (inactive)
- GI50 (SK-MEL-5): > 100 µM (inactive)
- GI50 (K562): > 100 µM (inactive)
- GI50 (SF-539): > 100 µM (inactive)
- GI50 (M19-MEL): > 100 µM (inactive)
- GI50 (DMS-273): > 100 µM (inactive)
- GI50 (SNB-19): > 100 µM (inactive)
- GI50 (EKVX): > 100 µM (inactive)
- GI50 (LOX IMVI): > 100 µM (inactive)
- GI50 (HL-60): > 100 µM (inactive)
- GI50 (786-0): > 100 µM (inactive)
- GI50 (SF-268): > 100 µM (inactive)
- GI50 (LXFL 529): > 100 µM (inactive)
- GI50 (MOLT-4): > 100 µM (inactive)
- GI50 (SR): > 100 µM (inactive)
- GI50 (SK-MEL-2): > 100 µM (inactive)
- GI50 (COLO 205): > 100 µM (inactive)
- GI50 (DLD-1): > 100 µM (inactive)
- GI50 (HOP-62): > 100 µM (inactive)
- GI50 (NCI-H460): > 100 µM (inactive)
- GI50 (OVCAR-3): > 100 µM (inactive)
- GI50 (RXF 393): > 100 µM (inactive)
- GI50 (OVCAR-8): > 100 µM (inactive)
- GI50 (OVCAR-4): > 100 µM (inactive)
- GI50 (SF-295): > 100 µM (inactive)
- GI50 (CAKI-1): > 100 µM (inactive)
- GI50 (RPMI-8226): > 100 µM (inactive)
- GI50 (NCI-H226): > 100 µM (inactive)
- GI50 (SNB-75): > 100 µM (inactive)
- GI50 (XF498): > 100 µM (inactive)
- GI50 (TK-10): > 100 µM (inactive)
- GI50 (HOP-92): > 100 µM (inactive)

Compound: C/C(CC(=O)Nc1ccc([N+](=O)[O-])cc1)=N\NC(N)=O
- GI50 (A498): > 100 µM (inactive)
- GI50 (NCI-H522): > 81.7 µM (inactive)
- GI50 (SN12C): > 100 µM (inactive)
- GI50 (A549): > 100 µM (inactive)
- GI50 (ACHN): > 100 µM (inactive)
- GI50 (SK-MEL-28): > 100 µM (inactive)
- GI50 (SW-620): > 100 µM (inactive)
- GI50 (SK-OV-3): > 100 µM (inactive)
- GI50 (U-251): > 100 µM (inactive)
- GI50 (HCT-15): 27 µM
- GI50 (UACC-257): > 100 µM (inactive)
- GI50 (CCRF-CEM): > 44.6 µM (inactive)
- GI50 (HT-29): > 100 µM (inactive)
- GI50 (Malme-3M): > 100 µM (inactive)
- GI50 (M14): > 76.6 µM (inactive)
- GI50 (KM-20L2): > 64.9 µM (inactive)
- GI50 (OVCAR-5): > 100 µM (inactive)
- GI50 (KM12): > 100 µM (inactive)
- GI50 (SNB-78): > 100 µM (inactive)
- GI50 (IGROV-1): > 100 µM (inactive)
- GI50 (UO-31): > 100 µM (inactive)
- GI50 (NCI-H23): > 100 µM (inactive)
- GI50 (UACC-62): > 71.3 µM (inactive)
- GI50 (HOP-18): > 100 µM (inactive)
- GI50 (DMS-114): > 45.8 µM (inactive)
- GI50 (SK-MEL-5): > 68.7 µM (inactive)
- GI50 (K562): > 70.8 µM (inactive)
- GI50 (SF-539): > 100 µM (inactive)
- GI50 (M19-MEL): > 100 µM (inactive)
- GI50 (DMS-273): > 66.5 µM (inactive)
- GI50 (SNB-19): > 100 µM (inactive)
- GI50 (EKVX): > 100 µM (inactive)
- GI50 (LOX IMVI): > 64.7 µM (inactive)
- GI50 (HCC 2998): > 100 µM (inactive)
- GI50 (HL-60): > 100 µM (inactive)
- GI50 (786-0): > 100 µM (inactive)
- GI50 (SF-268): 98.2 µM (inactive)
- GI50 (LXFL 529): > 80.2 µM (inactive)
- GI50 (MOLT-4): > 100 µM (inactive)
- GI50 (SR): 24.4 µM (inactive)
- GI50 (SK-MEL-2): > 100 µM (inactive)
- GI50 (COLO 205): > 55.6 µM (inactive)
- GI50 (DLD-1): > 77.8 µM (inactive)
- GI50 (HOP-62): > 100 µM (inactive)
- GI50 (NCI-H460): > 100 µM (inactive)
- GI50 (OVCAR-3): > 100 µM (inactive)
- GI50 (HCT-116): > 57.8 µM (inactive)
- GI50 (RXF 393): > 100 µM (inactive)
- GI50 (OVCAR-8): > 44.4 µM (inactive)
- GI50 (OVCAR-4): > 100 µM (inactive)
- GI50 (SF-295): > 100 µM (inactive)
- GI50 (CAKI-1): > 100 µM (inactive)
- GI50 (RPMI-8226): > 46.1 µM (inactive)
- GI50 (NCI-H226): > 100 µM (inactive)
- GI50 (SNB-75): > 100 µM (inactive)
- GI50 (XF498): > 100 µM (inactive)
- GI50 (TK-10): > 100 µM (inactive)
- GI50 (HOP-92): > 100 µM (inactive)
